In patent publication US20080234288A1, “Hcv Inhibiting Sulfonamides” (priority 2003, published 2008):
Structures can show the parent of a compound that is named as a salt.

These compounds were tested on HCV replicon (NS3-NS5B regions of HCV type 1b) in Huh-7 luc/neo cells (assay: HCV replicon assay, stable replicon cell reporter assay (Huh-Luc, luciferase)). Details: Hepatitis C virus, Huh-7, 72 h, incubation of three days, luciferase activity.
Type: cell-based
Text: The compounds of the present invention were examined for activity in the inhibition of HCV RNA replication in a cellular assay. […] The cellular assay was based on a bicistronic expression construct, as described by Lohmann et al. (1999) Science vol. 285 pp. 110-113 with modifications described by Krieger et al. (2001) Journal of Virology 75: 4614-4624, in a multi-target screening strategy. In essence, the method is as follows.
The assay utilized the stably transfected cell line Huh-7 luc/neo (hereafter referred to as Huh-Luc; kindly provided by Dr Ralf Bartenschlager, Reblikon GmBh, Germany). This cell line harbors an RNA encoding a bicistronic expression construct comprising the wild type NS3-NS5B regions of HCV type 1b translated from an Internal Ribosome Entry Site (IRES) from encephalomyocarditis virus (EMCV), preceded by a reporter portion (FfL-luciferase), and a selectable marker portion (neo^R, neomycine phosphotransferase). The construct was bordered by 5′ and 3′ NTRs (non-translated regions) from HCV type 1b. Continued culture of the replicon cells in the presence of G418 (neo^R) is dependent on the replication of the HCV RNA. The stably transfected replicon cells that express HCV RNA, which replicates autonomously and to high levels, encoding inter alia luciferase, were used for screening the antiviral compounds.
The replicon cells were plated in 384 well plates in the presence of the test and control compounds which were added in various concentrations. Following an incubation of three days, HCV replication was measured by assaying luciferase activity (using standard luciferase assay substrates and reagents and a Perkin Elmer ViewLux™ ultraHTS microplate imager). Replicon cells in the control cultures have high luciferase expression in the absence of any inhibitor. The inhibitory activity of the compound on luciferase activity was monitored on the Huh-Luc cells, enabling a dose-response curve for each test compound. EC50 values were then calculated, which value represents the amount of the compound required to decrease by 50% the level of detected luciferase activity, or more specifically, the ability of the genetically linked HCV replicon RNA to replicate (Table 1).

Compound	EC50 [µM]
CC(C)CN(CC(O)C(Cc1ccccc1)NC(=O)OCc1cncs1)S(=O)(=O)c1ccc(-c2csc(Nc3ccncc3)n2)cc1 (centres unmarked) [Compound 43, [1-Benzyl-2-hydroxy-3-(isobutyl-{4-[2-(pyridin-4-ylamino)-thiazol-4-yl]-benzenesulfonyl}-amino)-propyl]-carbamic acid thiazol-5-ylmethyl ester]	< 2
CC(C)CN(CC(O)C(Cc1ccccc1)NC(=O)OCc1cncs1)S(=O)(=O)c1ccc2nc(N3CCCC3)oc2c1 (centres unmarked) [Compound 5, {1-Benzyl-2-hydroxy-3-[isobutyl-(2-pyrrolidin-1-yl-benzo-oxazole-6-sulfonyl)-amino]-propyl}-carbamic acid thiazol-5-ylmethyl ester]	2 to 10
Cc1nc(-c2ccc(S(=O)(=O)N(CC(C)C)CC(O)C(Cc3ccccc3)NC(=O)OCc3cncs3)cc2)co1 (centres unmarked) [Compound 44, (1-Benzyl-2-hydroxy-3-{isobutyl-[4-(2-methyl-oxazol-4-yl)-benzenesulfonyl]-amino}-propyl)-carbamic acid thiazol-5-ylmethyl ester]	10 to 32
CC(C)CN(CC(O)C(Cc1ccccc1)NC(=O)OCc1cncs1)S(=O)(=O)c1ccc2nc(NC(=O)c3ccoc3)oc2c1 (centres unmarked) [Compound 25, [1-Benzyl-3-({2-[(furan-3-carbonyl)-amino]-benzooxazole-6-sulfonyl}-isobutyl-amino)-2-hydroxy-propyl]-carbamic acid thiazol-5-ylmethyl ester]	< 2
CC(C)CN(CC(O)C(Cc1ccccc1)NC(=O)OCc1cncs1)S(=O)(=O)c1ccc2ncn(CCc3ccccc3)c2c1 (centres unmarked) [Compound 41, {1-Benzyl-2-hydroxy-3-[isobutyl-(3-phenethyl-3H-benzo-imidazole-5-sulfonyl)-amino]-propyl}-carbamic acid thiazol-5-ylmethyl ester]	10 to 32
Nc1nc2ccc(S(=O)(=O)N(Cc3ccccn3)CC(O)C(Cc3ccccc3)NC(=O)OCc3cncs3)cc2o1 (centres unmarked) [Compound 22, {3-[(2-Amino-benzooxazole-6-sulfonyl)-pyridin-2-ylmethyl-amino]-1-benzyl-2-hydroxy-propyl}-carbamic acid thiazol-5-ylmethyl ester trifluoroacetate salt]	> 32
CC(C)CN(CC(O)C(Cc1ccccc1)NC(=O)OCc1cncs1)S(=O)(=O)c1ccc2nc(NCCCN(C)C)sc2c1 (centres unmarked) [Compound 17, (1-Benzyl-3-{[2-(3-dimethylamino-propylamino)-benzo-thiazole-6-sulfonyl]-isobutyl-amino}-2-hydroxy-propyl)-carbamic acid thiazol-5-ylmethyl ester]	10 to 32
CC(C)CN(CC(O)C(Cc1ccccc1)NC(=O)OCc1cncs1)S(=O)(=O)c1ccc2nc(N(C)C(=O)C3CCN(C)CC3)oc2c1 (centres unmarked) [Compound 38, [1-Benzyl-2-hydroxy-3-(isobutyl-{2-[methyl-(1-methyl-piperidine-4-carbonyl)-amino]-benzooxazole-6-sulfonyl}-amino)-propyl]-carbamic acid thiazol-5-ylmethyl ester]	10 to 32
CC(C)CN(CC(O)C(Cc1ccccc1)NC(=O)OCc1cncs1)S(=O)(=O)c1ccc2nc(N)sc2c1 (centres unmarked) [Compound 13, {3-[(2-Amino-benzothiazole-6-sulfonyl)-isobutyl-amino]-1-benzyl-2-hydroxy-propyl}-carbamic acid thiazol-5-ylmethyl ester]	2 to 10
CC(C)CN(CC(O)C(Cc1ccccc1)NC(=O)OCc1cncs1)S(=O)(=O)c1ccc2nc(N3CCNCC3)oc2c1 (centres unmarked) [Compound 30, {1-Benzyl-2-hydroxy-3-[isobutyl-(2-piperazin-1-yl-benzo-oxazole-6-sulfonyl)-amino]-propyl}-carbamic acid thiazol-5-ylmethyl ester]	2 to 10
CC(C)CN(CC(O)C(Cc1ccccc1)NC(=O)OCc1cncs1)S(=O)(=O)c1ccc2nc(NC(=O)CN3CCN(C)CC3)oc2c1 (centres unmarked) [Compound 7, [1-Benzyl-2-hydroxy-3-(isobutyl-{2-[2-(4-methyl-piperazin-1-yl)-acetylamino]-benzooxazole-6-sulfonyl}-amino)-propyl]-carbamic acid thiazol-5-ylmethyl ester]	2 to 10
CC(C)CN(CC(O)C(Cc1ccccc1)NC(=O)OCc1cncs1)S(=O)(=O)c1ccc2nc(N(C)C(=O)c3ccoc3)oc2c1 (centres unmarked) [Compound 10, [1-Benzyl-3-({2-[(furan-3-carbonyl)-methyl-amino]-benzo-oxazole-6-sulfonyl}-isobutyl-amino)-2-hydroxy-propyl]-carbamic acid thiazol-5-ylmethyl ester]	2 to 10
CC(C)CN(CC(O)C(Cc1ccccc1)NC(=O)OCc1cncs1)S(=O)(=O)c1ccc2nc(N(C)C(=O)C3CCC(=O)N3)oc2c1 (centres unmarked) [Compound 8, [1-Benzyl-2-hydroxy-3-(isobutyl-{2-[methyl-(5-oxo-pyrrolidine-2-carbonyl)-amino]-benzooxazole-6-sulfonyl}-amino)-propyl]-carbamic acid thiazol-5-ylmethyl ester]	10 to 32
CC(C)CN(CC(O)C(Cc1ccccc1)NC(=O)OCc1cncs1)S(=O)(=O)c1ccc2ncn(Cc3ccccc3)c2c1 (centres unmarked) [Compound 12, [1-Benzyl-3-[(3-benzyl-3H-benzoimidazole-5-sulfonyl)-isobutyl-amino]-2-hydroxy-propyl}-carbamic acid thiazol-5-ylmethyl ester]	2 to 10
CC(C)CN(CC(O)C(Cc1ccccc1)NC(=O)OCc1cncs1)S(=O)(=O)c1ccc2nc(NCCN3CCCC3)sc2c1 (centres unmarked) [Compound 15, (1-Benzyl-2-hydroxy-3-{isobutyl-[2-(2-pyrrolidin-1-yl-ethyl-amino)-benzothiazole-6-sulfonyl]-amino}-propyl)-carbamic acid thiazol-5-ylmethyl ester]	2 to 10
CC(C)CN(CC(O)C(Cc1ccccc1)NC(=O)OCc1cncs1)S(=O)(=O)c1ccc2nc(NC(=O)C3CCN(C)CC3)oc2c1 (centres unmarked) [Compound 26, [1-Benzyl-2-hydroxy-3-(isobutyl-{2-[(1-methyl-piperidine-4-carbonyl)-amino]-benzooxazole-6-sulfonyl}-amino)-propyl]-carbamic acid thiazol-5-ylmethyl ester]	10 to 32
CC(C)CN(CC(O)C(Cc1ccccc1)NC(=O)OCc1cnco1)S(=O)(=O)c1ccc2nc(N)oc2c1 (centres unmarked) [Compound 34, {3-[(2-Amino-benzooxazole-6-sulfonyl)-isobutyl-amino]-1-benzyl-2-hydroxy-propyl}-carbamic acid oxazol-5-ylmethyl ester]	10 to 32
CC(C)CN(CC(O)C(Cc1ccccc1)NC(=O)OCc1cncs1)S(=O)(=O)c1ccc2nc(N(C)C(=O)c3ccccn3)oc2c1 (centres unmarked) [Compound 36, [1-Benzyl-2-hydroxy-3-(isobutyl-{2-[methyl-(pyridine-2-carbonyl)-amino]-benzooxazole-6-sulfonyl}-amino)-propyl]-carbamic acid thiazol-5-ylmethyl ester]	10 to 32
CC(C)CN(CC(O)C(Cc1ccccc1)NC(=O)OCc1cncs1)S(=O)(=O)c1ccc2ncn(CC(C)C)c2c1 (centres unmarked) [Compound 42, {1-Benzyl-2-hydroxy-3-[isobutyl-(3-isobutyl-3H-benzo-imidazole-5-sulfonyl)-amino]-propyl}-carbamic acid thiazol-5-ylmethyl ester]	2 to 10
CC(C)CN(CC(O)C(Cc1ccccc1)NC(=O)OCc1cncs1)S(=O)(=O)c1ccc2nc(NC(=O)c3ccc(O)nc3)oc2c1 (centres unmarked) [Compound 3, [1-Benzyl-2-hydroxy-3-({2-[(6-hydroxy-pyridine-3-carbonyl)-amino]-benzooxazole-6-sulfonyl}-isobutyl-amino)-propyl]-carbamic acid thiazol-5-ylmethyl ester]	< 2
CC(C)CN(CC(O)C(Cc1ccccc1)NC(=O)OCc1cncs1)S(=O)(=O)c1ccc2nc(N(C)C(=O)c3ccnc(Cl)c3)oc2c1 (centres unmarked) [Compound 39, [1-Benzyl-3-({2-[(2-chloro-pyridine-4-carbonyl)-methyl-amino]-benzooxazole-6-sulfonyl}-isobutyl-amino)-2-hydroxy-propyl]-carbamic acid thiazol-5-ylmethyl ester]	10 to 32
CC(C)CN(CC(O)C(Cc1ccccc1)NC(=O)OCc1cncs1)S(=O)(=O)c1ccc2nc[nH]c2c1 (centres unmarked) [Compound 20, {3-[(3H-Benzoimidazole-5-sulfonyl)-isobutyl-amino]-1-benzyl-2-hydroxy-propyl}-carbamic acid thiazol-5-ylmethyl ester]	10 to 32
CC(C)CN(CC(O)C(Cc1ccccc1)NC(=O)OCc1cncs1)S(=O)(=O)c1ccc2nc(N(C)CCN3CCCC3)oc2c1 (centres unmarked) [Compound 6, {1-Benzyl-2-hydroxy-3-(isobutyl-{2-[methyl-(2-pyrrolidin-1-yl-ethyl)-amino]-benzooxazole-6-sulfonyl}-amino)-propyl]-carbamic acid thiazol-5-ylmethyl ester]	10 to 32
